The nature of data set [1]: Bioavailability in monkeys (plasma pharmacokinetics, HPLC). It counts as in vivo. The note with it: cynomolgus monkey. How it is done: Pharmacokinetic parameters were measured following intravenous (i.v.) administration and oral (p.o.) administration. The test composition consisted of four male cynomolgus monkeys. The i.v. dose was administered as a bolus, at a dosage level of 3 mg/kg. The oral doses were administered as soft gelatin capsules, at a dosage level of 10 mg/kg (2 capsules/monkey/dose). The oral formulations were as described in Table 6, below.
Blood samples were collected at predetermined time points. […] Pharmacokinetic parameters were estimated by non-compartmental methods. In Table 7, Cmax is peak plasma concentration; Tmax is time to peak plasma concentration; Tt/2 is apparent elimination half-life; AUC is area under the curve; and F % is absolute bioavailability.

The conditions of data set [2]: cited from earlier work.
A further data set can be described thus: physchem. It counts as physicochemical. The source says:
Thus, dissolving the fused pyrrolocarbazole initially in this particular particle-forming composition achieves a better than 3.2-fold increase in fused pyrrolocarbazole concentration in the final solution. Because initial contact with an aqueous medium occurs in vitro or in vivo, the non-aqueous particle-forming compositions are useful for therapeutic administration of a fused pyrrolocarbazole to a mammal.

Data set [3] deals with rat tumor model of prostate cancer. Description: Rat tumor model of prostate cancer. It counts as in vivo.
A short description of a further data set: in vivo. Conditions: beagle, dog, iv, 1 mg/kg.

In brackets after ≈: the same amount, converted by molar mass. Where two headings read alike, the source gives them in different places.

Description for in vivo: An intravenous dose was included as the third formulation in the crossover design. […] The plasma concentrations, as determined by HPLC with fluorescence detection, were normalized to a 1 mg/kg dose. Pharmacokinetic parameters, including peak plasma concentration (Cmax), time to peak plasma concentration (Tmax), apparent elimination half life (t1/2), area under the curve (AUCoo) and the absolute bioavailability (F %) were determined.

In data set [1] (i.v. bolus 3 mg/kg, PEG 1450:Pluronic F68:hydroxypropyl-β-cyclodextrin:water), `CCSCc1ccc2c(c1)c1c3c(c4c5cc(CSCC)ccc5n5c4c1n2C1CC(O)(C(=O)OC)C5(C)O1)CNC3=O` (stereo not shown) [Compound IIa-51] came in with a Tt/2 of 3.0 h. In data set [1] (male, plasma, iv, i.v. bolus 3 mg/kg, PEG 1450:Pluronic F68:hydroxypropyl-β-cyclodextrin:water, read-out: AUC0-4), the AUC(0-t) turned out to be 2500 ± 348 ng·h/mL. Also, the clearance (usually a measure of how efficiently the substance is removed, as volume per time) in data set [1] (male, plasma, iv, i.v. dose 3 mg/kg) is 18.3 mL/min/kg. In data set [1] (male, plasma, iv, i.v. dose 3 mg/kg, read-out: mean volume of distribution), the Vd came out at 4.9 ± 0.7 L/kg.
For the molecule `COC(=O)[C@@]1(O)C[C@H]2O[C@]1(C)n1c3ccccc3c3c4c(c5c6ccccc6n2c5c31)C(=O)NC4` [Compound K-252a, K-252a], the solubility in water entry in data set [2] is on record as “insoluble”.
On to `C[C@]12O[C@H](C[C@]1(O)C(=O)O)n1c3ccccc3c3c4c(c5c6ccccc6n2c5c31)CNC4=O` [Compound K-252b, K-252b], for which the solubility in water entry in data set [2] is “insoluble”.
`C[C@@H]1O[C@@H](n2c3ccccc3c3c4c(c5c6ccccc6[nH]c5c32)CNC4=O)[C@H](O)[C@H](O)[C@H]1O` [Compound K-252d, K-252d]: the solubility in water entry in data set [2] is recorded as “insoluble”.
As for `CC12OC(CC1(O)CO)n1c3ccccc3c3c4c(c5c6ccccc6n2c5c31)CNC4=O` (stereo not shown) [Compound IIa-12], the solubility in water result in “physchem” was “essentially no solubility”. The solubility (as a rule, the concentration that dissolves in the medium under given conditions) in “physchem” (aqueous with cosolvent or surfactant or cyclodextrin, kinetic from dmso stock) came to 570 µg/mL (≈ 1300 µM); in “physchem” (aqueous with cosolvent or surfactant or cyclodextrin, thermodynamic from solid), 180 µg/mL (≈ 410 µM); in “physchem” (organic solvent or mixture), 28400 µg/mL (≈ 64700 µM). Moreover, the anticancer activity result in data set [3] is reported as “anticancer activity”. In addition, the clearance in the data set “in vivo” was 13.2 mL/min/kg. The half-life (in general, the time in which the quantity being followed falls by half) in the data set “in vivo” was 1.16 h. The Vd in “in vivo” (apparent volume of distribution Vc) amounted to 0.96 L/kg; in “in vivo” (apparent volume of distribution Vβ), 1.35 L/kg.

These data come from patent publication US7795246B2, “Particle-forming compositions containing fused pyrrolocarbazoles” (Cephalon, Inc., priority 1998, dated 2010).
